Data on four compounds can be found in patent US20240343692A1 (priority 2021, published 2024).

Assay [1] concerns the target T1, Serotonin 5-HT2A (Homo sapiens, UniProt P28223). The following applies: 10 μM; data from ref. 34; cited from earlier work.
In assay [2] the target is T2, Muscarinic M5 (Homo sapiens, UniProt P08912).
T2 sequence (P08912 1-532): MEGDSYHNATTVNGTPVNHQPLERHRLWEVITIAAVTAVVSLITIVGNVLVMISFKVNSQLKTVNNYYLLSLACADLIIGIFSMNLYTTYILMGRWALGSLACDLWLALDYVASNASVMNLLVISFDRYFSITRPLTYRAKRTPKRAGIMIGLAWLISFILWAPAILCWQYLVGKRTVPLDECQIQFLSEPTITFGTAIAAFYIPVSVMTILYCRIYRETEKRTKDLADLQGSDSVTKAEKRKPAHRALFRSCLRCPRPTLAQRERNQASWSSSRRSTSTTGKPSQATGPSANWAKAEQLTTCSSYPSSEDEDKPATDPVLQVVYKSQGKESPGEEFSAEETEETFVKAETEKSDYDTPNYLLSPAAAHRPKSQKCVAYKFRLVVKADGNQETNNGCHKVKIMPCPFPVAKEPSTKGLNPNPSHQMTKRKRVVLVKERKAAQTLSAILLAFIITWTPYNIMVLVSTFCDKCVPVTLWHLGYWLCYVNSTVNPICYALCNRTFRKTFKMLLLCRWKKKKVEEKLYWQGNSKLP
The note with it: 10 μM; data from ref. 34; cited from earlier work.

Assay [3] deals with T3, Nicotinic Acetylcholine α4β2 (Homo sapiens, UniProt P17787+P43681). The note with it: 10 μM; data from ref. 34; cited from earlier work.
T3 sequence (P43681 29-627 limits assumed): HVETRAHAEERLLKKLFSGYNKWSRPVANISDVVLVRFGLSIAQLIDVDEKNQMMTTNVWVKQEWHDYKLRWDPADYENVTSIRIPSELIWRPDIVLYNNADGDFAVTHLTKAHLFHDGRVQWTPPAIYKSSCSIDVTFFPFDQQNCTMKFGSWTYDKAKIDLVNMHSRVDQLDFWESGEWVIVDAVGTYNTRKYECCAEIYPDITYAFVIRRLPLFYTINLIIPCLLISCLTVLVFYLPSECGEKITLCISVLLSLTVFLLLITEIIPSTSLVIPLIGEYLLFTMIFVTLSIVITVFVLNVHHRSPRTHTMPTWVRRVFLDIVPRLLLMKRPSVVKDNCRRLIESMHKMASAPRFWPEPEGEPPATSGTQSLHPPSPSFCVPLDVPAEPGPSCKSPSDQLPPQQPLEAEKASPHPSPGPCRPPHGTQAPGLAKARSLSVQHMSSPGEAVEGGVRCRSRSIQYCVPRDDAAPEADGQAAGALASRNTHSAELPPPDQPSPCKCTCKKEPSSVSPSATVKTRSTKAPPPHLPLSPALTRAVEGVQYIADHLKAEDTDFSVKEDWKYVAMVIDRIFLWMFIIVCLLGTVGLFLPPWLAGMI
T3 sequence (P17787 26-502): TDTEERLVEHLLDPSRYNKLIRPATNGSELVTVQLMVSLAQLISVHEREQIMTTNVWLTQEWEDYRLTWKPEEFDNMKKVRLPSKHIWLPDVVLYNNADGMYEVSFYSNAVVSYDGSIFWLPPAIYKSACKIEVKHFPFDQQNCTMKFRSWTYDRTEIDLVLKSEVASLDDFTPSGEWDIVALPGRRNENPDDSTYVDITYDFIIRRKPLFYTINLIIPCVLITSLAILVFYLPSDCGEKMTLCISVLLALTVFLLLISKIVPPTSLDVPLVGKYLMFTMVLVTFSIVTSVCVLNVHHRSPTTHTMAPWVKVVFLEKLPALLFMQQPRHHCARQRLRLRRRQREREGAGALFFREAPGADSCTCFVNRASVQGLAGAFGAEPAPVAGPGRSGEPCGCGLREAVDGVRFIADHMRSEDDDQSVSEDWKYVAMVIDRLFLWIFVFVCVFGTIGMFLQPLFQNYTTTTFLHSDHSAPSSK
Assay [4] concerns the target T4, Muscarinic M2 (Homo sapiens, UniProt P08172).
T4 sequence (P08172 1-466): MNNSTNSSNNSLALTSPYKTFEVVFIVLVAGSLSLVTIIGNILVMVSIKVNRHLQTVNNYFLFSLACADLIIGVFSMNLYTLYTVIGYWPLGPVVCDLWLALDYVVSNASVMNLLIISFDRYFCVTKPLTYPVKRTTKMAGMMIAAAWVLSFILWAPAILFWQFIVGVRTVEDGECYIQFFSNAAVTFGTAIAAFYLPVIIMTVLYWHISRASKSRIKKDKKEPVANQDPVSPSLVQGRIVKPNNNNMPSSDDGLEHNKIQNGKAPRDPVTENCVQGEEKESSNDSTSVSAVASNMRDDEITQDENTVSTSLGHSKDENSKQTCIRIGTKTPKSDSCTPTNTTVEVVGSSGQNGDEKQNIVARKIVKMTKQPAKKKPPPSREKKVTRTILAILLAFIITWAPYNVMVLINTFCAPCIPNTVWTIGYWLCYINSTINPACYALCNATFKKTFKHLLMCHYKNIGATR
The note with it: 10 μM; data from ref. 34; cited from earlier work.

For assay [5], the target named is T5, Dopamine D3 (Homo sapiens, UniProt P35462). The note with it: 10 μM; data from ref. 34; cited from earlier work.
T5 sequence (P35462 whole entry): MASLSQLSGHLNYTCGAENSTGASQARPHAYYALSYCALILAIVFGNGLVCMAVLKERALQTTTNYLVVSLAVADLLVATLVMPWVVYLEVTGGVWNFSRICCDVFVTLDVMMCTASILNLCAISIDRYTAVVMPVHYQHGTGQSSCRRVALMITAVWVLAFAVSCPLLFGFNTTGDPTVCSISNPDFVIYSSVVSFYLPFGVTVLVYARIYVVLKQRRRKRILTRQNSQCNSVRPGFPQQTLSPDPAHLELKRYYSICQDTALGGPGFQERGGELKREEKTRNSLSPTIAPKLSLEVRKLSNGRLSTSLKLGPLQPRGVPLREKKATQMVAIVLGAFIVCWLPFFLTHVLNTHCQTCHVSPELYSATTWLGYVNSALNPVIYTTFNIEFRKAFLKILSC
The target of assay [6] is T6, Dopamine D2L (Homo sapiens, UniProt P14416). The following applies: 10 μM; data from ref. 34; cited from earlier work.
T6 sequence (P14416 whole entry): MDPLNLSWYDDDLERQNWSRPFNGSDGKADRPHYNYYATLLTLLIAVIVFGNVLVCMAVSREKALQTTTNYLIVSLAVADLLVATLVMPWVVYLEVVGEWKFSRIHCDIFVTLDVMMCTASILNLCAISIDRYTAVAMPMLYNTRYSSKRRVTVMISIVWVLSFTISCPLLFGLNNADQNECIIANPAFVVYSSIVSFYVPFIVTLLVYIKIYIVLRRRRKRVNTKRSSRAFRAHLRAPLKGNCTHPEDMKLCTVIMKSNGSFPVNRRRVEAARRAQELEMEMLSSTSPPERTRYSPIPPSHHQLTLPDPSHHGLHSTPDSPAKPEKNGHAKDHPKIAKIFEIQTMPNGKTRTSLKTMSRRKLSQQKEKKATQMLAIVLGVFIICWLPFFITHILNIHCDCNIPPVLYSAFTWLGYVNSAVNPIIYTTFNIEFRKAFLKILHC
For assay [7], the system named is Adrenergic α1. The following applies: 10 μM; rat receptor data; data from ref. 35; cited from earlier work.
Assay [8] has as its target T7, Dopamine D1 (Homo sapiens, UniProt P21728). The following applies: 10 μM; data from ref. 34; cited from earlier work.
Assay [9] addresses T8, Opiate κ (Homo sapiens, UniProt P41145). The note with it: 10 μM; data from ref. 34; cited from earlier work.
The test system of assay [10] is GABAA. The following applies: 10 μM; rat receptor data; data from ref. 34; cited from earlier work.
Assay [11] concerns the target T1, Serotonin 5-HT2A. The following applies: data from ref. 36; read-out: activation potency EC50, Serotonin 5-HT2A; cited from earlier work.
Assay [12] has as its target T9, Sigma-1 (Homo sapiens, UniProt Q99720).
The target of assay [13] is T10, Serotonin 5-HT1A (Homo sapiens, UniProt P08908).
T10 sequence (P08908 1-422): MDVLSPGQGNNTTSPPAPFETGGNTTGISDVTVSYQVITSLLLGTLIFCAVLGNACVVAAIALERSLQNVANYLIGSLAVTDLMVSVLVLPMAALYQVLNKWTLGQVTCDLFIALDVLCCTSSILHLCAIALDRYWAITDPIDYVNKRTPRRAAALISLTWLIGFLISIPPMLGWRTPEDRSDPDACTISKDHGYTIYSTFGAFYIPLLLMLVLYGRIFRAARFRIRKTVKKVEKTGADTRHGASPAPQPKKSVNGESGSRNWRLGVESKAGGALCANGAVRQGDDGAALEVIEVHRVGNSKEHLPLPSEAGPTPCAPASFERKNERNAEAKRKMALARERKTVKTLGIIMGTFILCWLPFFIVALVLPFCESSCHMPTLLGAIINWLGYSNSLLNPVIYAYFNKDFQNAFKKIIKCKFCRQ
The following applies: read-out: inhibition constants Ki, Serotonin 5-HT1A; data from ref. 36; cited from earlier work.

The target in assay [14] is T10, Serotonin 5-HT1A. Briefly: Receptor activation potency, Serotonin 5-HT1A. The following applies: 5-point concentration response curves, duplicate. The format is biochemical.
Assay [15] concerns the target T11, Orexin OX1 (Homo sapiens, UniProt O43613).
T11 sequence (O43613 1-425): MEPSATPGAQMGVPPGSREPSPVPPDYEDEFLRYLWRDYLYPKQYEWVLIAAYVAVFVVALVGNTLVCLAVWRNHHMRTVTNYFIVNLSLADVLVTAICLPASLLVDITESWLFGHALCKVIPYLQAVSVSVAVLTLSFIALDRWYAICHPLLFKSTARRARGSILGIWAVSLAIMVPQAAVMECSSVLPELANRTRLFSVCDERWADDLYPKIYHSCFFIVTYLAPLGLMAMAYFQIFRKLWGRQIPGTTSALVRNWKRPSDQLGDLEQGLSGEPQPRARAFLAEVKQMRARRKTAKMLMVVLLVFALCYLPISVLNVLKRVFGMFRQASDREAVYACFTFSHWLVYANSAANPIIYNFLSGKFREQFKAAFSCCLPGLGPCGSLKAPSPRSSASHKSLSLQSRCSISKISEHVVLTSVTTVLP
Briefly: CNS receptor radioligand binding, Orexin OX1. The note with it: 10 μM.

For assay [16], the target named is T8, Opiate κ. The assay is described as follows: CNS receptor radioligand binding, Opiate κ. The following applies: 10 μM.
In assay [17] the target is T10, Serotonin 5-HT1A. Briefly: CNS receptor radioligand binding, Serotonin 5-HT1A.
Assay [18] has as its target Serotonin 5-HT2B (Homo sapiens, UniProt P41595). Briefly: Receptor activation potency, Serotonin 5-HT2B. The format is biochemical. The following applies: 5-point concentration response curves, duplicate.
The target in assay [19] is T1, Serotonin 5-HT2A. Briefly: CNS receptor radioligand binding, Serotonin 5-HT2A.
The target in assay [20] is T12, Serotonin 5-HT2C (Homo sapiens, UniProt P28335).
T12 sequence (P28335 33-458): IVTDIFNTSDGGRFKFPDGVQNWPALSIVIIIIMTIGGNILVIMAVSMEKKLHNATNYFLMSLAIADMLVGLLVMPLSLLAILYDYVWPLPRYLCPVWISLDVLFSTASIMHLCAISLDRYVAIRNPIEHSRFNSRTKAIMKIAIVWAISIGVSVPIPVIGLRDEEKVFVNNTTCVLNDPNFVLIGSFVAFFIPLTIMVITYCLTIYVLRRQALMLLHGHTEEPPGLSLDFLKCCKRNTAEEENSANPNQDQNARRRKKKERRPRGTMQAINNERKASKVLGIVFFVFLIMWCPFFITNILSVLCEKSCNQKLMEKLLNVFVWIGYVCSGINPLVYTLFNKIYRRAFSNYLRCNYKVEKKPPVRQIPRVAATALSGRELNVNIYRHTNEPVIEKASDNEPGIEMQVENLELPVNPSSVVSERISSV
The assay is described as follows: Receptor activation potency, Serotonin 5-HT2C. It is filed as biochemical. The note with it: 5-point concentration response curves, duplicate.

Assay [21] concerns the target Histamine H1 (Homo sapiens, UniProt P35367). Briefly: CNS receptor radioligand binding, Histamine H1 (human). The note with it: 10 μM.
Assay [22] addresses T7, Dopamine D1. The assay is described as follows: CNS receptor radioligand binding, Dopamine D1. The note with it: 10 μM.
The target in assay [23] is T3, Nicotinic Acetylcholine α4β2. Briefly: CNS receptor radioligand binding, Nicotinic Acetylcholine α4β2. The following applies: 10 μM.
Assay [24] addresses T9, Sigma-1. The assay is described as follows: Inhibition constant, Sigma-1. The format is binding. The note with it: human receptor; 5-point concentration response curves; duplicate; read-out: inhibition constants Ki, Sigma-1.
In assay [25] the target is T6, Dopamine D2L. Briefly: CNS receptor radioligand binding, Dopamine D2L. The following applies: 10 μM.
For assay [26], the target named is T2, Muscarinic M5. Briefly: CNS receptor radioligand binding, Muscarinic M5. The following applies: 10 μM.
The target in assay [27] is T5, Dopamine D3. Briefly: CNS receptor radioligand binding, Dopamine D3.
Assay [28] relates to Adrenergic α1. The assay is described as follows: CNS receptor radioligand binding, Adrenergic α1. The note with it: 10 μM; rat receptor data.
For assay [29], the target named is T1, Serotonin 5-HT2A. The assay is described as follows: Receptor activation potency, Serotonin 5-HT2A. It is filed as biochemical. The note with it: 5-point concentration response curves, duplicate.
Assay [30] concerns the target T4, Muscarinic M2. Briefly: CNS receptor radioligand binding, Muscarinic M2. The following applies: 10 μM.
Assay [31] has as its system GABAA. The assay is described as follows: CNS receptor radioligand binding, GABAA. The note with it: 10 μM; rat receptor data.

Like-named read-outs stand apart in the source and are kept apart here. Marks after values point to notes of the source that are not given here.

T9 sequence (Q99720 whole entry): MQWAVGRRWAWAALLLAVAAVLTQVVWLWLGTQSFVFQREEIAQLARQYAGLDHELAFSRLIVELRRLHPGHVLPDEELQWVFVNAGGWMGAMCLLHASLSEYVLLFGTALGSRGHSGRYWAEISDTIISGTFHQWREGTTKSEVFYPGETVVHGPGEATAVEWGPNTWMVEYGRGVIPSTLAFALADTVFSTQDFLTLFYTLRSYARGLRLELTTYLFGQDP
T1 sequence (P28223 whole entry, looked up): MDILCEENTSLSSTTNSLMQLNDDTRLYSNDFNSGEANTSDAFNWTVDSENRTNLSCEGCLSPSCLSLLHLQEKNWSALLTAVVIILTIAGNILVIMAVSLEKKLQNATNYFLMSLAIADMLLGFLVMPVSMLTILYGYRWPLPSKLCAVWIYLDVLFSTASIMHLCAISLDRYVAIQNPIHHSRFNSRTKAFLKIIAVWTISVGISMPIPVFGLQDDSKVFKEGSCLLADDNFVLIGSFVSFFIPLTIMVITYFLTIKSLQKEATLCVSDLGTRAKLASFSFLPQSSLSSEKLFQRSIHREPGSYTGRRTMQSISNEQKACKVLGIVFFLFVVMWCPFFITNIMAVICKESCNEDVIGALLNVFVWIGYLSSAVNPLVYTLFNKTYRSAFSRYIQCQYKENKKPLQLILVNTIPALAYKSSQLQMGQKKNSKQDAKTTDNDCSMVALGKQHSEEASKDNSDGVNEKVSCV
T8 sequence (P41145 whole entry): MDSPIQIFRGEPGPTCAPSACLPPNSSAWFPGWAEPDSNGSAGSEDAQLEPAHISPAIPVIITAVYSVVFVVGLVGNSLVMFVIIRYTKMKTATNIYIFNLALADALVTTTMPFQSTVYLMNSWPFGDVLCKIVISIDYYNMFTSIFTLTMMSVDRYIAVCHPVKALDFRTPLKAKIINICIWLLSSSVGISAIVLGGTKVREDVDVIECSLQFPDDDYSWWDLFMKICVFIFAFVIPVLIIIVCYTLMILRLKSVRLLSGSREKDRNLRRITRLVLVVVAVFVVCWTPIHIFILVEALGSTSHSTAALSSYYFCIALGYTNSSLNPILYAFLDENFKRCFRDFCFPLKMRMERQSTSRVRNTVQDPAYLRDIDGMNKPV
T7 sequence (P21728 whole entry): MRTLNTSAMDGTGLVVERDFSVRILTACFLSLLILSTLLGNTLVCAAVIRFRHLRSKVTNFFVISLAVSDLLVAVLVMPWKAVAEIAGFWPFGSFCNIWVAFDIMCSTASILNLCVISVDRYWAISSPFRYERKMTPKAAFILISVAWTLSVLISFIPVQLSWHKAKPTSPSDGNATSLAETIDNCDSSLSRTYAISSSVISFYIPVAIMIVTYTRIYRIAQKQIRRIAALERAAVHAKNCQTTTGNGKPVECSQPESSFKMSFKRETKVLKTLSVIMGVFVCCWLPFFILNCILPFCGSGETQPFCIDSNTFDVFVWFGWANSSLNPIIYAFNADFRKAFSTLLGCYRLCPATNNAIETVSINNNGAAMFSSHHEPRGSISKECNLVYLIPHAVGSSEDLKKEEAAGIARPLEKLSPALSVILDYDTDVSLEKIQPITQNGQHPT
Chain of Histamine H1 (P35367 whole entry): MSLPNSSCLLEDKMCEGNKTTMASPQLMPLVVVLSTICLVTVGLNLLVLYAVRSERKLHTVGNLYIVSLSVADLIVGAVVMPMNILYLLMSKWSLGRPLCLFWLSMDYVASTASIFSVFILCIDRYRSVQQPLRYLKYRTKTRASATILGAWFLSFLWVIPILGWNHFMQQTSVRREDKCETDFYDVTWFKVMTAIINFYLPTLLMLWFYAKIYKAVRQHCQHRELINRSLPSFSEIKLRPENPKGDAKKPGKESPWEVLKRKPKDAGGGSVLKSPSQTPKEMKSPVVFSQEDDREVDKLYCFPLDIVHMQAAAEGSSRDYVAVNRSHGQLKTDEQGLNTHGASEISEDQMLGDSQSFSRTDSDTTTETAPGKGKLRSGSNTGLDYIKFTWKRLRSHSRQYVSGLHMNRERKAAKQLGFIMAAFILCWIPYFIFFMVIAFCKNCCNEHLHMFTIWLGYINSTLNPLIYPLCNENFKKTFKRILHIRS
Chain of Serotonin 5-HT2B (P41595 whole entry): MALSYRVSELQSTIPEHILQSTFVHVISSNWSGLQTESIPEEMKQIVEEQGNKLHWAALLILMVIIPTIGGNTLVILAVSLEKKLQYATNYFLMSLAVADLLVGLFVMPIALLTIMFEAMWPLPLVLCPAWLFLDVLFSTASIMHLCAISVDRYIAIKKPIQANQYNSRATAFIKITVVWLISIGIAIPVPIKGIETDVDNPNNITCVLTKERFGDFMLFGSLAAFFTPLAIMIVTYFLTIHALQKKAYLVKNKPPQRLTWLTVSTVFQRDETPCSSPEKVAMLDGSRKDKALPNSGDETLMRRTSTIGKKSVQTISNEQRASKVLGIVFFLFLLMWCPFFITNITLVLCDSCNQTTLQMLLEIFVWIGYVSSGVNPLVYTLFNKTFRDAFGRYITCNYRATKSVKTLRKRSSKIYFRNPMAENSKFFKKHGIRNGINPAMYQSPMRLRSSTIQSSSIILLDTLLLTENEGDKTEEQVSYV

Consider `CCN(CC)C(=O)[C@@H]1C=C2c3cccc4[nH]cc(c34)C[C@H]2N(C)C1` [D-LSD, D-lysergic acid diethylamide], for which the “Percent Inhibition of Specific Binding of a Radioligand Standard, Serotonin 5-HT2A” value in assay [1] is 93 % inh. Further, in [2], the “Percent Inhibition of Specific Binding of a Radioligand Standard, Muscarinic M5” value was 15 % inh. Also, in assay [3], the “Percent Inhibition of Specific Binding of a Radioligand Standard, Nicotinic Acetylcholine α4β2” value is on record as 0 % inh. In addition, the “Percent Inhibition of Specific Binding of a Radioligand Standard, Muscarinic M2” value in assay [4] was 2 % inh. The “Percent Inhibition of Specific Binding of a Radioligand Standard, Dopamine D3” value in assay [5] is 78 % inh. Moreover, the “Percent Inhibition of Specific Binding of a Radioligand Standard, Dopamine D2L” value in [6] was 85 % inh. Also, the “Percent Inhibition of Specific Binding of a Radioligand Standard, Adrenergic α1” value in assay [7] was 100^d % inh. The “Percent Inhibition of Specific Binding of a Radioligand Standard, Dopamine D1” value in assay [8] is listed as 93 % inh. Moreover, the “Percent Inhibition of Specific Binding of a Radioligand Standard, Opiate κ” value in [9] was 29 % inh. The “Percent Inhibition of Specific Binding of a Radioligand Standard, GABAA” value in assay [10] is 0 % inh.
As usually defined, the EC50 is the concentration giving half of the maximal effect. For orientation: Ki means a dissociation constant, usually derived from enzyme kinetics or from competition with a known ligand. For `CN(C)CCc1c[nH]c2ccccc12` [DMT], the EC50 in assay [11] is 0.076 µM. Besides, in assay [12] (data from ref. 37; read-out: inhibition constants Ki, Sigma-1; cited from earlier work), the Ki was 5.2 µM.
As to `CN(C)CCc1c[nH]c2cccc(O)c12` [Psilocin], the Ki in assay [13] is 0.123 µM; in assay [12] (read-out: inhibition constants Ki, Sigma-1; data from ref. 37; cited from earlier work), greater than 10 µM.
With (−)-Cycloclavine, the EC50 is roughly 5 µM in [14], greater than 20 µM in assay [18], 3.2 µM in [20] and greater than 50 µM in [29]. Further, the “Percent Inhibition of Specific Binding of a Radioligand Standard, Orexin OX1” value in [15] stood at 6 % inh. Moreover, the “Percent Inhibition of Specific Binding of a Radioligand Standard, Opiate κ” value in assay [16] came to 75 % inh. Moreover, the “Percent Inhibition of Specific Binding of a Radioligand Standard, Serotonin 5-HT1A” value in assay [17] (1 μM) was 73 % inh; in assay [17] (10 μM), 91 % inh. For the same compound, the “Percent Inhibition of Specific Binding of a Radioligand Standard, Serotonin 5-HT2A” value in assay [19] (1 μM) worked out at 51 % inh; in [19] (10 μM), 89 % inh. Further, the “Percent Inhibition of Specific Binding of a Radioligand Standard, Histamine H1” value in assay [21] stood at 27 % inh. In addition, the “Percent Inhibition of Specific Binding of a Radioligand Standard, Dopamine D1” value in [22] was 30 % inh. In assay [23], the “Percent Inhibition of Specific Binding of a Radioligand Standard, Nicotinic Acetylcholine α4β2” value is recorded as 11 % inh. The Ki in assay [24] stood at 8.3 µM. Also, in [25], the “Percent Inhibition of Specific Binding of a Radioligand Standard, Dopamine D2L” value is on record as 14 % inh. The “Percent Inhibition of Specific Binding of a Radioligand Standard, Muscarinic M5” value in assay [26] was found to be 15 % inh. Also, the results for the “Percent Inhibition of Specific Binding of a Radioligand Standard, Dopamine D3” value in assay [27] (1 μM) and in [27] (10 μM) were 32 % inh and 64 % inh, respectively. Moreover, in [28], the “Percent Inhibition of Specific Binding of a Radioligand Standard, Adrenergic α1” value is 59 % inh. Further, the “Percent Inhibition of Specific Binding of a Radioligand Standard, Muscarinic M2” value in assay [30] was 0 % inh. In [31], the “Percent Inhibition of Specific Binding of a Radioligand Standard, GABAA” value came out at 0 % inh.
